Test results published in patent US20220324912A1, “THERAPEUTIC PEPTIDES” (COHBAR, INC., priority 2019, published 2022).
Non-standard residues stand in square brackets, D forms with d. No end group written: not given here.

Columns and labels:
[1] = test system: 3T3-L1 adipocytes; experiment: Free Fatty Acid Levels in 3T3-L1 Adipocytes (Example 4, 25 μM); format: cell-based, mouse; details: peptides 25 μM, 20-22 hours then 3 hours with isoproterenol 1 nM, 3T3-L1 adipocytes
Description: Following 12-15 days' differentiation, test peptides were added to a final concentration of 25 μM and incubated for 20-22 hours in Adipocyte Maintenance Medium. After 20-22 hours, isoproterenol (1 nM) was added to all wells except untreated controls and test peptides were replenished. Cells were incubated for a further 3 hours in Assay Buffer (Zen-Bio). Free fatty acid concentrations in the media were determined using a Free Fatty Acid Assay Kit (Zen-Bio) according to the manufacturer's instructions using a plate reader (540 nm). Absorbance values were corrected for untreated background and expressed relative to isoproterenol treated cells. Treatment with isoproterenol (1 nM) alone was used as the free fatty acid level stimulatory control. The relative standard deviation of the isoproterenol control was <10%. […] Free fatty acid levels for insulin (100 nM) treatment were <5% of the isoproterenol control value.

[2] = test system: C2C12 cells; experiment: Cell Proliferation in C2C12 Cells (Cyquant DNA dye); format: cell-based, mouse; details: peptides 10 μM, 72 hours with readdition every 24 hours, relative to 0.1% DMSO control
Description: The effect of the peptides on cell proliferation was assessed using a DNA dye binding assay in cultured cells such as mouse myoblast cells. Peptides were initially prepared as 10 mM stock in DMSO, diluted to 1 mM in H2O, and added at a final concentration of 10 μM (0.1% DMSO). Lovastatin was used as a growth arrest control at final concentration of […]. […] C2C12 cells were grown in DMEM supplemented with 20% FBS with 100 IU/ml penicillin and 100 μg/ml streptomycin. […] C2C12 cells were seeded at 800 cells per well on 96-well plates. […] Cell proliferation was determined using Cyquant Direct Nucleic Acid Stain (Thermo Fisher Scientific, Waltham, Mass.) according to the manufacturer's instructions. Fluorescence for each sample well on the plate was measured using a Cytation 3 plate reader at Ex/Em=495/535 nm (BioTek, Winooski, Vt.). Activity was calculated relative to 0.1% DMSO untreated control. The relative standard deviation for the lovastatin control was <27%. The cell proliferation for the lovastatin control was <25% of the value for untreated control.

[3] = test system: C2C12 cells; experiment: Cellular ROS Levels Induced by TBHP in C2C12 Cells (DCFDA); format: cell-based, mouse; details: peptides 10 μM, 18-20 hours, then TBHP 100 μM 1 hour, relative to TBHP control
Description: The protective or synergistic effect of the peptides on cellular levels of reactive oxygen species (ROS) induced by oxidative stress can be assessed using an assay of ROS in cultured cells such as mouse myoblasts exposed to a suitable oxidative stress. Peptides were initially prepared as 10 mM stock in DMSO, diluted to 1 mM in H2O, and added at a final concentration of 10 μM (0.1% DMSO). […] TBHP was used at final concentration of 100 μM. Sulforaphane at final concentration of 10 µM was used as a protective control against TBHP induced ROS production. […] C2C12 cells were grown in DMEM supplemented with 20% FBS with 100 IU/ml penicillin and 100 μg/ml streptomycin. […] C2C12 cells were seeded at 7,500 cells per well on 96-well plates. […] After 18-20 hours of incubation the cells were loaded with DCFDA for 45 min. TBHP at 100 μM was then added to the appropriate wells for 1 hour. ROS activity was determined using a DCFDA Cellular ROS Detection Assay kit (Abcam, Cambridge, Mass.) according to the manufacturer's instructions. Fluorescence in each sample well on the plate was measured using a Cytation 3 plate reader at Ex/Em=485/535 nm (BioTek, Winooski, Vt.). Activity was calculated relative to TBHP control. The relative standard deviation of the sulforaphane control was <20%. The ROS level produced by the sulforaphane control in the presence of TBHP was 52% of the TBHP control.

[4] = test system: 3T3-L1 mouse adipocytes; experiment: Free Fatty Acid Levels in 3T3-L1 Mouse Adipocytes (Example 12, 10 μM); format: cell-based; details: peptides 10 μM, 20-22 hours then 3 hours with isoproterenol 1 nM, 3T3-L1 mouse adipocytes
Description: The effect of the peptides on fatty acid metabolism can be assessed using an assay of free fatty acid levels in cultured cells such as mouse adipocytes. Peptides were initially prepared as 10 mM stock in DMSO, diluted to 1 mM in H2O, and used at a final concentration of 10 μM (0.1% DMSO). […] After 20-22 hours, 1 nM isoproterenol was added to all wells except untreated controls and test peptides were replenished. Insulin at 100 nM was added to control wells. […] Free fatty acid concentrations in the media were determined using a Free Fatty Acid Assay kit (Zen-Bio) according to the manufacturer's instructions using a Cytation 3 plate reader at 540 nm (BioTek, Winooski, Vt.). Absorbance values were corrected for untreated background and expressed relative to isoproterenol treated cells. Treatment with isoproterenol (1 nM) alone was used as the free fatty acid level stimulatory control. The relative standard deviation of the isoproterenol control was <10%. […] Free fatty acid levels for insulin (100 nM) treatment were <5% of the isoproterenol control value.

[5] = test system: DIO mice; experiment: Metabolic parameters in DIO mice, twice daily intraperitoneal, 10 days (Example 16); format: in vivo, mouse; details: 5 mg/kg, male DIO mice
Description: Male C57BL/6 mice were maintained on a high fat diet for 18 weeks to develop diet induced obesity. Animals were randomized to treatment groups based on blood glucose levels and body weight. The peptides of the invention were administered to groups of male DIO mice twice daily by intraperitoneal injection at a dose of 5 mg/kg/dose for 10 days (N=8 animals per treatment group). An additional group of male DIO mice (n=8) received vehicle (water) alone administered twice daily by intraperitoneal injection. Body weight, blood glucose levels and food intake were monitored. Body mass distribution (fat vs lean) was determined by quantitative whole body NMR prior to dosing and at the end of dosing.

Row | Substance | Free fatty acid levels, Percent of Control Value (percent isoproterenol control) [1] [%] | further results
1 | 3 (LAVRRTARAIG) [compound 3] | 91 | –
2 | 4 (LAVRRTARAI) [compound 4] | 102 | –
3 | 5 (LAVRRTARA[dA]) [compound 5] | 109 | –
4 | 14 (MRLPGPAILTNPVLGWVWV) [compound 14] | – | Cell proliferation, Percent of Control [2]: 93.2%; Cellular ROS levels induced by TBHP, Percent of Control [3]: 106.0%; Free fatty acid levels, Percent of Isoproterenol Control Activity [4]: 80.8%; Difference from Vehicle Control: Decrease from Baseline in Blood Glucose [5]: -6.12 mg/dL; Difference from Vehicle Control: Decrease from Baseline in Body Weight [5]: −2.48%; Difference from Vehicle Control: Decrease from Baseline in Fat Mass [5]: -0.93 g
5 | 21 (TFQKTHNLNQHNHPQPNY) [compound 21] | 91 | –
6 | 22 ([dA]FQKTHNLNQHNHPQPNY) [compound 22] | 135 | –
7 | 23 ([dA]FQKTHNLNQHNHPQ[dA]N) [compound 23] | 114 | –
8 | 26 (VVKGPLSEGGHPWGREGI) [compound 26] | 129 | –
9 | 27 (VVKGPLSEGGHPWGREG) [compound 27] | 89 | –
10 | 28 (VKAPLSEGGHPWGREG) [compound 28] | 135 | –
